The test system of one experiment is injected TA muscle. The experiment can be described thus: IM rAAV gene transfer: histology and RT-PCR of injected TA muscle. It counts as in vivo, C57BL/6 mice. The conditions noted are these: fifteen days post IM rAAV1 vector injection.
For experiment [1], the system named is lentiviral vectors pseudotyped with HIV-1 envelope protein (HXB2-env). Kind of experiment: Transduction of human CD3+ T cells by HXB2-env pseudotyped lentiviral vectors (GFP). It counts as cell-based. The conditions noted are these: 400 µM, 72 hours post transduction, vs control. As to the method: CD3^+ T cells, from peripheral blood of healthy individual donors, are purified by positive selection via MACS beads using a magnetic cell sorting system (Miltenyi Biotec). CD3^+ T cells are activated for 3 days at 37°C, 5% CO2 in plates coated with anti-CD3 (10 µg/ml) and anti-CD28 (10 µg/ml) antibodies (both from Miltenyi Biotec) and filled with RPMI 1640 medium supplemented with 10% heat-inactivated fetal calf serum, 100 U/ml penicillin/streptomycin, 2 mM glutamax, 100 IU/ml IL-2 (Miltenyi Biotec). Cells are then transferred on retronectin (20 µg/cm2) coated-plates, in the presence or absence of MnTBAP (400 µM), at a density of 2.5 x 10^5 cells/ml for transduction during 6 h with 6 x 10^7 physical particles (pp)/ml of HXB2-env pseudotyped lentiviral vectors expressing GFP reporter gene under the control of hPGK (human phosphoglycerate kinase 1). After transduction, cells are washed and further incubated for 72 h in fresh culture medium (RPMI 1640 medium supplemented as described above). Cells are then harvested for transduction efficiency analysis by FACS, determined as the percentage of viable (7AAD-) lymphoid cells expressing GFP^+. The data are normalized to be a percentage of the control value (none) from each experiment.

Another experiment concerns CD4 and P56^Lck. The experiment can be described thus: CD4 immunoprecipitation probed with anti-p56Lck. The conditions noted are these: viable murine splenic enriched CD4+ T cells, 2 hours, 400 µM. It counts as cell-based. As for the experimental part:
Cells, harvested after 2 hours of culture with or without MnTBAP, are resuspended in solubilization buffer containing 1% NP-40 (Sigma-Aldrich), 0.1 M (NH4)2SO4, 20 mM Tris (pH 7.5), 10% glycerol, 25 mM NaF (Sigma-Aldrich), 1 mM Na3VO4 (Thermo Fisher Scientific, Villebon-sur-Yvette, France) and 1x protease inhibitor mixture (Roche, Basel, Switzerland). After 30 minutes of incubation under gentle agitation, cell lysates are centrifuged at 14,000 x g for 30 minutes. Lysates are frozen in aliquots at -20°C or used immediately. Immunoprecipitation is performed by incubation overnight of lysates with rat anti-mouse CD4 (GK 1.5, Biolegend, San Diego, CA, USA) under gentle agitation at 4°C. The antigen-antibody complex is then added to Protein A/G resin slurry (Pierce, Thermo Fisher scientific), and incubated with gentle mixing for 2 hours at room temperature, and finally microcentrifuged for 30 seconds. The pellet is washed five times with solubilization buffer, and the immunoprecipitated material is eluted by incubating the complex for 2-5 minutes at 95-100°C in Laemmli sample buffer prepared without β-ME. […] Infrared fluorescence of the secondary antibodies was read on an Odyssey Imaging System, and quantification of bands was performed using the ImageStudio Lite software (LI-COR Biosciences).

Experiment [2] relates to Reactive Oxygen Species (ROS). Kind of experiment: In vivo chemiluminescence imaging of localized inflammation (L-012). The conditions noted are these: 4 days after first MnTBAP injection, IM rAAV gene transfer, vs PBS. Also on record: species or system mice. As to the method:
(§1) MnTBAP (Calbiochem, San Diego, USA or Enzo Life Sciences, Farmingdale, USA) is dissolved in 75 mM NaOH to constitute a 20 mM stock solution. MnTBAP is dissolved in the complete medium, used for in vitro treatment, containing RPMI-1640 supplemented with 10% heat-inactivated fetal calf serum, 100 U/ml penicillin/streptomycin, 2 mM glutamax and 50 µM β-mercaptoethanol β-ME). Hypertonic medium, used to block clathrin dependent endocytosis, is complete medium supplemented with 0.45 M sucrose. For in vivo treatment, the stock solution is diluted with PBS and administered at 80 mg/kg intraperitoneally daily during five days. Control animals are injected with equivalent volume of PBS.
Intramuscular (IM) injection: Two hours post first intraperitoneal (IP) injection of MnTBAP, mice are anesthetized by IP injection of xylazine (10 mg/kg) and ketamine (100 mg/kg) and 25 µl of a rAAV2/1 CMV SGCA HY viral preparation containing 2.5.10^9 vg is injected in the left tibialis anterior muscle (TA). Controls are injected with PBS. Mice are sacrificed 15 days after vector injection and the injected muscles are harvested to perform histologic analysis. […]
After mice isofluorane anaesthesia, 100 µl of L-012 solution (15 mg/ml) (Wako, Osaka, Japan) are administered intravenously in retro-orbital sinus 4 days after first MnTBAP injection. […] Radiance (ph/s/cm^2/sr) is measured for each Region of Interest (ROI).

Experiment [3] concerns splenic T-lymphocyte subsets. Kind of experiment: Absolute numbers of splenic T-lymphocyte subsets by flow cytometry. It counts as in vivo, mice. The conditions noted are these: 15 days post first injection, after gene transfer, vs PBS. As to the method: as §1
Intramuscular (IM) injection: Two hours post first intraperitoneal (IP) injection of MnTBAP, mice are anesthetized by IP injection of xylazine (10 mg/kg) and ketamine (100 mg/kg) and 25 µl of a rAAV2/1 CMV SGCA HY viral preparation containing 2.5.10^9 vg is injected in the left tibialis anterior muscle (TA). Controls are injected with PBS. Mice are sacrificed 15 days after vector injection and the injected muscles are harvested to perform histologic analysis. Spleens are harvested to analyze transgene-specific T cell response.
After mechanic disruption of the spleen, erythrocytes are eliminated by hypotonic shock with ammonium chloride potassium (ACK) lysing buffer. […]
(In flow cytometry, cells or beads pass a laser one at a time.)

Where [4] appears, read: injected TA, vs non-treated control groups.

From patent publication EP3431088A1, “MNTBAP FOR USE IN INDUCING A TRANSIENT IMMUNE TOLERANCE” (priority 2017, dated 2019) come the findings set out here.

As to `O=C(O)c1ccc(-c2c3nc(c(-c4ccc(C(=O)O)cc4)c4ccc([n-]4)c(-c4ccc(C(=O)O)cc4)c4nc(c(-c5ccc(C(=O)O)cc5)c5ccc2[n-]5)C=C4)C=C3)cc1.[Mn+3]` [MnTBAP, manganese [III] tetrakis (4-benzoic acid) porphyrin], in the experiment with injected TA muscle (80 mg/kg IP daily 5 days), the muscle integrity result was “normal muscle integrity”. Moreover, in the experiment with injected TA muscle (setting [4]), the “CD8a mRNA expression” value is reported as “decrease of CD8a mRNA expression” and the SGCA transgene expression result is “increase of the SGCA transgene expression”. Further, the “transduction efficiency of human T cells (GFP^+ cells)” value in experiment [1] is given as “significantly decreased”. In the experiment on CD4 and P56^Lck, the “link between CD4 and P56^Lck” value was “disruption of CD4 and P56^Lck is observed”. Further, the “Reactive Oxygen Species (ROS), average radiance of left inferior limb” value in experiment [2] is reported as “produce less Reactive Oxygen Species (ROS)”. Besides, in experiment [3], the “absolute number of splenic CD4^+ T cells” value is listed as “significant decrease in the absolute number” and the “absolute number of splenic CD8^+ T cells” value is listed as “significant decrease in the absolute number”.
